Values quoted from earlier work in US20260240156A1, “OIL-BASED DISPERSION COMPOSITIONS OF SOLID PARTICULATE HYGROSCOPIC OR WATER-SOLUBLE PESTICIDES” (priority 2023, published 2026).

Conditions: in water compared to non-aqueous systems

In the case of `CC1=NNC(=O)N(/N=C/c2cccnc2)C1` [Pymetrozine, 6-methyl-4-[(E)-(pyridin-3ylmethylene)amino]-4,5-dihydro-2H-[1,2,4]-triazin-3-one], the Photodegradation is given as “significantly faster in water compared to non-aqueous systems”.
